Test results reported in patent US12377074B2, “Treatment for Wolfram syndrome” (YALE UNIVERSITY, priority 2019, dated 2025).
“Also recorded” adds a separate entry of the source.

Key:
WFS1-WT INS1 cells [1] = experiment: CellTiter-Glo cell viability assay, WFS1-WT cells; assay type: cell-based, rat; conditions: 30 mM additional glucose (30G) 48 h, normalized to CTRL, 10 μM in FIG. 19C
Procedure: (§1) CellTiter-Glo™ (CTG) assay (Promega) was used to quantify ATP-dependent bioluminescence as an indicator of cell viability. To assess cell viability, INS1 cells were plated in white 96-well plates (Cat. 07-200-628, Fisher Scientific) at a density of 2×10^3 cells per well and treated the following day with high glucose and/or the indicated drugs for 48 hours before imaging. After treatment was completed, 100 μL of CTG solution was added to each well and 20 minutes later, reading was performed using a Tecan Infinite M1000 Pro microplate reader using the following setting: 5 s orbital shaking (3 mm, 216 rpm), followed by imaging in luminescence mode with 500 ms integration time.
(§2) Because intracellular calcium is an important determinant of cell viability, we measured cell viability in WFS1-WT and WFS1-KO cells. A luminescent, ATP-based assay was used. […] Following hyperglycemia (additional 30 mM glucose for 48 h), we observed an approximately 40% reduction in cell viability in WFS1-KO cells, whereas cell viability in WFS1-WT cells was only 15% lower than under control conditions (FIG. 19C). WFS1-KO cells could be rescued by WFS1 re-expression (SI Appendix, FIG. S5A). These findings are supported by previous reports showing that WFS1 deficiency causes progressive loss of pancreatic β-cells.

WFS1-KO INS1 cells [2] = experiment: CellTiter-Glo cell viability assay, WFS1-KO cells; assay type: cell-based, rat; conditions: for cell viability after hyperglycemia / cell viability at baseline: WFS1-KO cells; for cell viability after hyperglycemia: 30 mM additional glucose (30G) 48 h, normalized to CTRL, 10 μM in FIG. 19C; for cell viability at baseline: no additional glucose
Procedure: CellTiter-Glo™ (CTG) assay (Promega) was used to quantify ATP-dependent bioluminescence as an indicator of cell viability. […] After treatment was completed, 100 μL of CTG solution was added to each well and 20 minutes later, reading was performed using a Tecan Infinite M1000 Pro microplate reader using the following setting: 5 s orbital shaking (3 mm, 216 rpm), followed by imaging in luminescence mode with 500 ms integration time.
Because intracellular calcium is an important determinant of cell viability, we measured cell viability in WFS1-WT and WFS1-KO cells. A luminescent, ATP-based assay was used.

WFS1-OE INS1 cells = experiment: CellTiter-Glo cell viability assay, WFS1-OE cells; assay type: cell-based, rat; conditions: 30 mM additional glucose (30G) 48 h
Procedure: as §1, §2

WFS1-KO INS1 cells [3] = experiment: Resting cytosolic calcium imaging (Fura-2-AM), WFS1-KO cells; assay type: cell-based, rat; conditions: 10 μM, 24 h treatment
Procedure: (§3) 2×10^5 cells were plated on each coverslip 2 days before imaging in INS1 medium without G418. HEPES-buffered saline (140 mM NaCl. 1.13 mM MgCl2, 4.7 mM KCL, 2 mM CaCl2, 10 mM D-glucose, and 10 mM HEPES, adjusted to pH 7.4 with NaOH) was used to prepare calcium dye solution and during imaging. In calcium-free HEPES buffer, CaCl2 was replaced with MgCl2 and 0.1 mM EGTA was added to chelate calcium. Fura-2-AM dye powder (Thermo Fisher) was dissolved to 4 μM in calcium-containing HEPES buffer supplemented with 0.03% Pluronic acid (Thermo Fisher). On the day of imaging, each coverslip was incubated in dye solution for 45 min in the dark at room temperature. Each coverslip was then washed 3 times in HEPES-buffered saline solution before calcium imaging began. Calcium measurements were performed with a Hammamatsu Orca R2 camera attached to a Zeiss microscope with a Sutter Lambda DG4 for excitation ratio imaging. Cells were imaged using sequential excitation at 340/380 nm (Fura-2-AM). Images were acquired with emission bandwidth of 501 to 550 nm every second. The raw 340 and 380 signals for each cell were subtracted by corresponding background signal before a 340/380 ratio was calculated. Max amplitude and area under the curve were calculated using PRISM Statistical Software 8. Rate of rise was quantified as the gradient between 25% and 75% maximum amplitude. […]

WFS1-WT INS1 cells [4] = experiment: Resting cytosolic calcium imaging (Fura-2-AM), WFS1-WT cells; assay type: cell-based, rat; conditions: 10 μM, 24 h treatment
Procedure: as §3

WFS1-KO INS1 cells [5] = experiment: Glucose-stimulated insulin secretion (insulin ELISA), WFS1-KO cells; assay type: cell-based, rat; conditions: 10 μM drug; for glucose-stimulated insulin secretion: 9 mM glucose stimulation; for difference in glucose-stimulated insulin secretion between WFS1-WT and WFS1-KO cells: after stimulation with 9 mM glucose
Procedure: (§4) For glucose-stimulated insulin secretion studies, INS1 cells were plated on 6-well plates at a density of 6×10^5 cells per well. After 24 hours, cells were incubated with drugs for another 24 hours. Two days after plating, the insulin ELISA assays were performed following a previously published protocol. In detail, preincubating cells in DMEM-base (Sigma) supplemented with 2.5 mM glucose for 1.5 h was followed by a 45 min incubation in DMEM-base with either 2.5 mM glucose for basal secretion or 9 mM glucose for stimulated secretion as indicated. 200 μl of supernatant were collected for analysis of insulin concentration using the Rat High Range ELISA kit (80-INSRTH-E01, ALPCO). Cells were washed with ice cold PBS and lysed in 1 mL 0.1% Triton X-100. Insulin levels were normalized to total protein measured by Micro BCA protein assay kit (23235, Thermo Fisher Scientific).

WFS1-WT INS1 cells [6] = experiment: Glucose-stimulated insulin secretion (insulin ELISA), WFS1-WT cells; assay type: cell-based, rat; conditions: 10 μM drug, 24 h
Procedure: as §4

INS-1 cells (WT) = experiment: Cell survival after high glucose, WT INS-1 cells (first set); assay type: cell-based, rat; conditions: for cell survival after treatment with 31 mM glucose for 48 hours (glucose induced cell death): survival normalized to % survival at 1 mM glucose
Procedure: (§5) Survival is normalized to % survival at 1 mM glucose.
as §5

WFS1 KO INS-1 cells = experiment: Cell survival after high glucose, WFS1 KO INS-1 cells (first set); assay type: cell-based, rat; conditions: for cell survival after treatment with 31 mM glucose for 48 hours (glucose induced cell death): 31 mM glucose 48 h, survival normalized to % survival at 1 mM glucose
Procedure: as §5
The concentration range for protection from cell death by high glucose in WFS1 KO cells is similar.

WFS1-deficient cells [7] = conditions: cited from earlier work
WFS1-deficient cells [8] = conditions: cited from earlier work; remark: listed apart in the source
[9] = test system: calpain activity in INS-1 cells; conditions: siRNA against WFS1, 10 μM dantrolene 48 h, then 0.5 μM thapsigargin 6 h, cleaved spectrin relative to GAPDH; cited from earlier work
[10] = cited from earlier work

| SMILES | cell viability after hyperglycemia (WFS1-WT INS1 cells [1]) | cell viability after hyperglycemia (WFS1-KO INS1 cells [2]) | cell viability at baseline (WFS1-KO INS1 cells [2]) | cell viability after hyperglycemia (WFS1-OE INS1 cells) | resting cytosolic calcium (WFS1-KO INS1 cells [3]) | resting cytosolic calcium (WFS1-WT INS1 cells [4]) | glucose-stimulated insulin secretion (WFS1-KO INS1 cells [5]; WFS1-KO cells, 24 h) | difference in glucose-stimulated insulin secretion between WFS1-WT and WFS1-KO cells (WFS1-KO INS1 cells [5]) | cell survival after treatment with 31 mM glucose for 48 hours (glucose induced cell death) (INS-1 cells (WT); 31 mM glucose 48 h) | cell survival after treatment with 31 mM glucose for 48 hours (glucose induced cell death) (WFS1 KO INS-1 cells) | also measured |
| --- | --- | --- | --- | --- | --- | --- | --- | --- | --- | --- | --- |
| CCC(NC(=O)OCc1ccccc1)C(=O)C(=O)NCCCN1CCOCC1 (centres unmarked) [calpain inhibitor XI] | fully rescued cell viability back to baseline | fully rescued cell viability back to baseline; also recorded: rescued cell viability back to normal level | did not significantly affect cell viability | fully rescued cell viability back to baseline | lowered the resting cytosolic calcium in WFS1-KO cells to the level of WFS1-WT cells; also recorded: reversed elevated cytosolic calcium | without affecting | reversed the impairment; also recorded: can be reversed | ameliorated the difference | – | – | cell viability after hyperglycemia (WFS1-WT INS1 cells [1]; listed as C.I.): rescued; high glucose-induced loss of cell viability, dose dependence (WFS1-KO INS1 cells [2]; WFS1-KO cells (clone #1), high glucose, dose series): reversed glucose toxicity-induced loss of cell viability in a dose-dependent manner; also recorded: dose-dependently reversed; cell viability after hyperglycemia (WFS1-KO INS1 cells [2]; listed as C.I.): rescued; insulin secretion (WFS1-WT INS1 cells [6]): did not affect |
| CCCC(CCC)C(=O)O [valproic acid] | – | – | – | – | – | – | – | – | no effect | no effect | cell survival after treatment with 31 mM glucose for 48 hours (glucose induced cell death) (INS-1 cells (WT); 31 mM glucose 48 h, listed as valproate): no effect on survival; cell survival after treatment with 31 mM glucose for 48 hours (glucose induced cell death) (WFS1 KO INS-1 cells; listed as valproate): no effect on survival |
| CN(C)CCCN1c2ccccc2Sc2ccc(Cl)cc21 [chlorpromazine] | – | – | – | – | – | – | – | – | no effect | no effect | cell survival after treatment with 31 mM glucose for 48 hours (glucose induced cell death) (INS-1 cells (WT); 31 mM glucose 48 h, listed as chlorprmazine): no effect on survival; cell survival after treatment with 31 mM glucose for 48 hours (glucose induced cell death) (WFS1 KO INS-1 cells; listed as chlorprmazine): no effect on survival |
| [Li] [lithium] | – | – | – | – | – | – | – | – | no effect | no effect | – |
| CC(C)C(=O)c1c(C(C)C)nn2ccccc12 [ibudilast] | fully rescued cell viability back to baseline | fully rescued cell viability back to baseline; also recorded: rescued cell viability back to normal level | did not significantly affect cell viability; also recorded: slightly raised cell viability | fully rescued cell viability back to baseline | lowered the resting cytosolic calcium in WFS1-KO cells to the level of WFS1-WT cells; also recorded: reversed elevated cytosolic calcium | without affecting | reversed the impairment; also recorded: can be reversed | ameliorated the difference | rescued viability; also recorded: did protect cell survival | rescued viability | cell survival at low (normal) glucose (INS-1 cells (WT); 1 mM glucose): no effect; also recorded: does not alter cell survival; concentration giving nearly full recovery/protection of survival (INS-1 cells (WT); 31 mM glucose 48 h): 1 µM; EC50 (INS-1 cells (WT); 31 mM glucose 48 h, read-out: half max effect on survival): ~300 nM; concentration range for protection from cell death by high glucose, compared with WT (WFS1 KO INS-1 cells; high glucose): similar; cell viability after hyperglycemia (WFS1-WT INS1 cells [1]; listed as IBU): rescued; cell viability after hyperglycemia (WFS1-KO INS1 cells [2]; listed as IBU): rescued; insulin secretion at baseline (WFS1-KO INS1 cells [5]; WFS1-KO cells, 2.5 mM glucose, 24 h): enhanced insulin secretion at baseline; insulin secretion at baseline (WFS1-WT INS1 cells [6]; 2.5 mM glucose): enhanced insulin secretion at baseline |
| O=C1CN(/N=C/c2ccc(-c3ccc([N+](=O)[O-])cc3)o2)C(O)=N1 [Dantrolene, dantrolene] | – | – | – | – | – | – | – | – | – | – | cytosolic calcium levels (WFS1-deficient cells [7]): restored; apoptosis (WFS1-deficient cells [8]): suppressed; calpain activity [9]: reduced; side effects of prolonged use [10]: liver toxicity |
